Patent US11370769B2, “TRPC5 inhibitors and methods of using same” (BOARD OF REGENTS OF THE UNIVERSITY OF NEBRASKA, priority 2017, dated 2022)

Target: T1, TRPC6 channels (Rattus norvegicus, UniProt Q99N78)
T1 construct: Acutely isolated glomeruli were prepared as described above; from tissue; host or cells: acutely isolated glomeruli (podocytes) of AT1R Tg and WT rats
T1 sequence (Q99N78 1-930): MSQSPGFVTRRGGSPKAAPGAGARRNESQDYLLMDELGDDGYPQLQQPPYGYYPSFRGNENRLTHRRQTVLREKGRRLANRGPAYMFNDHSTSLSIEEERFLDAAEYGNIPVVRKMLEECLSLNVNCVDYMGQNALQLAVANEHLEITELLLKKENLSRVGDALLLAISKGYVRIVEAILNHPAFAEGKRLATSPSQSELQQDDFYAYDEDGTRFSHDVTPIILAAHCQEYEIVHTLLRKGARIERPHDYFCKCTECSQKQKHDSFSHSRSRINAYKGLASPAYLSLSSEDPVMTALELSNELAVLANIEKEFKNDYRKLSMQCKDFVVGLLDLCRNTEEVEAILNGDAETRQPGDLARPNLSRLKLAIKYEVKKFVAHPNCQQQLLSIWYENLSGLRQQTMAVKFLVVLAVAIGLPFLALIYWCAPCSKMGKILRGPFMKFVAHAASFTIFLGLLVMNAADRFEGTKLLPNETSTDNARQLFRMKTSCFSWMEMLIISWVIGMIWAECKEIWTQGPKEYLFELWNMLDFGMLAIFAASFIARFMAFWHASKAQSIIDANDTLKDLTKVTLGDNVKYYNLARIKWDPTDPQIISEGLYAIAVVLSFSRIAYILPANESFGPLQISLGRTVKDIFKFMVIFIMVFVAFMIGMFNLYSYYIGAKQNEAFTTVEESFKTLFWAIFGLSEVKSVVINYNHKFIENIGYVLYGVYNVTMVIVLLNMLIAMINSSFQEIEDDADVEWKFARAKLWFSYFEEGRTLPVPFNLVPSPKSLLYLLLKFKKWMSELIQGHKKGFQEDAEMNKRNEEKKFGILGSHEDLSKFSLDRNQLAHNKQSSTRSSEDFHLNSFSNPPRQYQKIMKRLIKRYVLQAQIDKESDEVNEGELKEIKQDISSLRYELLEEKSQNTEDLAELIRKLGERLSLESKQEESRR
Test: Glomerular inside-out single-channel recordings, OAG-induced conductances
Type: cell-based
Conditions: glomeruli from age matched AT1R Tg rats and WT controls
Procedure: Acute glomeruli isolation and Ca^2+-imaging: WT and AT1R Tg littermates were killed and kidneys were quickly dissected and washed with ice-cold PBS. After isolation using the sieving technique as previously described (11), glomeruli were incubated with the Ca^2+ indicator Fura2-AM (1 μM; Invitrogen) at 37° C. for 15 min. The extracellular solution for Ca^2+-imaging contained (in mM) 140 NaCl, 5 KCl, 10 HEPES, 2 MgCl2, 2 CaCl2, 10 glucose, with pH7.4 adjusted with NaOH. Glomerular Ca^2+-imaging was performed using an inverted microscope (Olympus IX70) with a high-speed CCD camera (Hamamatsu Photonics). Images were taken and analyzed using the Metafluor software (Molecular Devices). It should be noted that Fura-2 is most often taken up by podocytes at the periphery of the isolated glomerulus, but the specificity of recordings in podocytes is best confirmed by patch clamp electrophysiology, as described below.
Glomerular single-channel recordings: Acutely isolated glomeruli were prepared as described above. Single-channel recordings were carried out using an Axopatch 200B and Digidata 1550A (Molecular Devices). Bath and pipette solutions for glomerular single-channel recording contained (in mM) 135 CH3SO3Na, 5 CsCl, 2 CaCl2, 1 MgCl2, 10 HEPES, and 10 glucose with pH7.4 adjusted with NaOH. […]

## Cc1cc(N2CCCCC2)nc2ccccc12 [ML204, reference compound]
  inhibition of OAG-induced conductances: no inhibition
